In one experiment the test system is Saccharomyces cerevisiae. As to the kind of experiment: Antifungal against Saccharomyces cerevisiae after 24 hrs by two fold serial dilution method. It is filed as functional.
For another experiment, the system named is Bacillus subtilis. As to the kind of experiment: Antibacterial activity against Bacillus subtilis after 24 hrs by micro broth dilution assay. In kind it is functional. (In general: Broth dilution looks for growth in wells or tubes with falling amounts of substance.)
For a further experiment, the system named is Pichia norvegensis. Description: Antifungal against Candida mycoderma after 24 hrs by two fold serial dilution method. In kind it is functional.
In a further experiment the test system is Aspergillus flavus. Description: Antifungal against Aspergillus flavus after 24 hrs by two fold serial dilution method. In kind it is functional.
For a further experiment, the system named is Shigella dysenteriae. As to the kind of experiment: Antibacterial activity against Shigella dysenteriae after 24 hrs by micro broth dilution assay. It is filed as functional.
In another experiment the test system is Candida albicans. Description: Antifungal against Candida albicans ATCC 76615 after 24 hrs by two fold serial dilution method. In kind it is functional. As to conditions: ATCC 76615, 24 h.
Experiment [1] relates to Escherichia coli. As to the kind of experiment: Antibacterial activity against Escherichia coli DH52 after 24 hrs by micro broth dilution assay. It is filed as functional. The following applies: DH52, 24 h.
The test system of experiment [2] is Escherichia coli. As to the kind of experiment: Antibacterial activity against Escherichia coli JM109 after 24 hrs by micro broth dilution assay. It is filed as functional. The following applies: JM109, 24 h.
The subject of another experiment is Salmonella typhi. As to the kind of experiment: Antibacterial activity against Bacillus typhi after 24 hrs by micro broth dilution assay. As to conditions: Salmonella enterica. It is filed as functional, Salmonella enterica subsp. enterica serovar Typhi.
In experiment [3] the test system is Staphylococcus aureus. Description: Antibacterial activity against methicillin-resistant Staphylococcus aureus N315 after 24 hrs by micro broth dilution assay. In kind it is functional. As to conditions: N315, 24 h.
Experiment [4] relates to Staphylococcus aureus. Description: Antibacterial activity against Staphylococcus aureus ATCC 25923 after 24 hrs by micro broth dilution assay. It is filed as functional. The following applies: ATCC 25923, 24 h.
In another experiment the test system is Pseudomonas aeruginosa. Description: Antibacterial activity against Pseudomonas aeruginosa after 24 hrs by micro broth dilution assay. In kind it is functional.
The next experiment has as its system Bacillus. Description: Antibacterial activity against Bacillus proteus ATCC 13315 after 24 hrs by micro broth dilution assay. As to conditions: ATCC 13315, 24 h. It is filed as functional.
A further experiment relates to Micrococcus luteus. As to the kind of experiment: Antibacterial activity against Micrococcus luteus ATCC4698 after 24 hrs by micro broth dilution assay. In kind it is functional. As to conditions: ATCC4698, 24 h.
For another experiment, the system named is Cyberlindnera jadinii. Description: Antifungal against Candida utilis after 24 hrs by two fold serial dilution method. In kind it is functional. The following applies: Williopsis jadinii.

Converted amounts (≈) assume the structure as drawn.

As usually defined, the MIC is the lowest concentration found to suppress growth. Read a low MIC as inhibition by little substance. For `O=C(/C=C/c1ccc(Cl)cc1)c1nc2ccccc2[nH]1`, the minimal inhibitory concentration (MIC) amounted to 128 µg/mL (≈ 453 µM) against Saccharomyces cerevisiae; 512 µg/mL (≈ 1810 µM) in the experiment with Bacillus subtilis; 512 µg/mL (≈ 1810 µM) against Pichia norvegensis; 32 µg/mL (≈ 113 µM) with Aspergillus flavus; 512 µg/mL (≈ 1810 µM) against Shigella dysenteriae; 512 µg/mL (≈ 1810 µM) with Candida albicans. The minimum inhibitory concentration (MIC) is 8 µg/mL (≈ 28.3 µM) in the experiment on Escherichia coli [1]; 256 µg/mL (≈ 905 µM) in the experiment on Escherichia coli [2]; 512 µg/mL (≈ 1810 µM) against Salmonella typhi; 512 µg/mL (≈ 1810 µM) with Staphylococcus aureus [3]; 128 µg/mL (≈ 453 µM) against Staphylococcus aureus [4]; 512 µg/mL (≈ 1810 µM) in the experiment on Pseudomonas aeruginosa. In addition, the MIC stood at 512 µg/mL (≈ 1810 µM) in the experiment with Bacillus, 64 µg/mL (≈ 226 µM) with Micrococcus luteus and 512 µg/mL (≈ 1810 µM) against Cyberlindnera jadinii.

Turning to `CCCCn1c(C(=O)/C=C/c2ccc(F)cc2)nc2ccccc21`, the MIC in the experiment on Saccharomyces cerevisiae was 512 µg/mL (≈ 1590 µM); against Bacillus subtilis, 4 µg/mL (≈ 12.4 µM); in the experiment with Pichia norvegensis, 64 µg/mL (≈ 199 µM); in the experiment on Aspergillus flavus, 128 µg/mL (≈ 397 µM); against Shigella dysenteriae it was 4 µg/mL (≈ 12.4 µM); with Candida albicans, 16 µg/mL (≈ 49.6 µM). In addition, the minimal inhibitory concentration (MIC) against Escherichia coli [1] came to 64 µg/mL (≈ 199 µM); with Escherichia coli [2], 16 µg/mL (≈ 49.6 µM); against Salmonella typhi it was 8 µg/mL (≈ 24.8 µM); with Staphylococcus aureus [3], 8 µg/mL (≈ 24.8 µM); against Staphylococcus aureus [4], 4 µg/mL (≈ 12.4 µM); in the experiment on Pseudomonas aeruginosa, 0.5 µg/mL (≈ 1.55 µM). Besides, the figures for the MIC against Bacillus, in the experiment on Micrococcus luteus and against Cyberlindnera jadinii were 512 µg/mL (≈ 1590 µM), 8 µg/mL (≈ 24.8 µM) and 16 µg/mL (≈ 49.6 µM), respectively.

In the case of `CCCCCCCCn1c(C(=O)/C=C/c2ccc(Cl)cc2)nc2ccccc21`, the MIC was 4 µg/mL (≈ 10.1 µM) against Saccharomyces cerevisiae; 512 µg/mL (≈ 1300 µM) against Bacillus subtilis; 512 µg/mL (≈ 1300 µM) with Pichia norvegensis; 32 µg/mL (≈ 81 µM) in the experiment on Aspergillus flavus; 512 µg/mL (≈ 1300 µM) against Shigella dysenteriae; 4 µg/mL (≈ 10.1 µM) against Candida albicans. Further, the MIC worked out at 8 µg/mL (≈ 20.3 µM) against Escherichia coli [1]; 512 µg/mL (≈ 1300 µM) against Escherichia coli [2]; 128 µg/mL (≈ 324 µM) against Salmonella typhi; 512 µg/mL (≈ 1300 µM) against Staphylococcus aureus [3]; 512 µg/mL (≈ 1300 µM) with Staphylococcus aureus [4]; 512 µg/mL (≈ 1300 µM) in the experiment with Pseudomonas aeruginosa. In addition, the MIC against Bacillus, against Micrococcus luteus and in the experiment with Cyberlindnera jadinii was 512 µg/mL (≈ 1300 µM) in each case.

On to `CCCCCCn1c(C(=O)/C=C/c2ccc(C)cc2)nc2ccccc21`, for which the minimum inhibitory concentration (MIC) against Saccharomyces cerevisiae, in the experiment on Bacillus subtilis, in the experiment with Pichia norvegensis, in the experiment on Aspergillus flavus, in the experiment on Shigella dysenteriae and with Candida albicans was 512 µg/mL (≈ 1480 µM) each time. The MIC against Escherichia coli [1] was 512 µg/mL (≈ 1480 µM); in the experiment with Escherichia coli [2], 512 µg/mL (≈ 1480 µM); with Salmonella typhi, 512 µg/mL (≈ 1480 µM); against Staphylococcus aureus [3], 16 µg/mL (≈ 46.2 µM); in the experiment on Staphylococcus aureus [4] it was 512 µg/mL (≈ 1480 µM); against Pseudomonas aeruginosa it was 512 µg/mL (≈ 1480 µM). Also, the MIC in the experiment on Bacillus, in the experiment with Micrococcus luteus and in the experiment with Cyberlindnera jadinii was 512 µg/mL (≈ 1480 µM) in each case.

`CCCCCCCCn1c(-c2cc(-c3ccc(Cl)cc3)nc(N)n2)nc2ccccc21`: the minimum inhibitory concentration (MIC) in the experiment with Saccharomyces cerevisiae stood at 8 µg/mL (≈ 18.4 µM); against Bacillus subtilis, 2 µg/mL (≈ 4.61 µM); with Pichia norvegensis it was 8 µg/mL (≈ 18.4 µM); against Aspergillus flavus it was 256 µg/mL (≈ 590 µM); in the experiment on Shigella dysenteriae, 32 µg/mL (≈ 73.7 µM); with Candida albicans it was 8 µg/mL (≈ 18.4 µM). The MIC is 512 µg/mL (≈ 1180 µM) with Escherichia coli [1]; 512 µg/mL (≈ 1180 µM) in the experiment on Escherichia coli [2]; 4 µg/mL (≈ 9.22 µM) against Salmonella typhi; 128 µg/mL (≈ 295 µM) in the experiment with Staphylococcus aureus [3]; 256 µg/mL (≈ 590 µM) against Staphylococcus aureus [4]; 32 µg/mL (≈ 73.7 µM) in the experiment on Pseudomonas aeruginosa. In addition, the MIC was found to be 256 µg/mL (≈ 590 µM) in the experiment on Bacillus, 16 µg/mL (≈ 36.9 µM) against Micrococcus luteus and 8 µg/mL (≈ 18.4 µM) against Cyberlindnera jadinii.

In the case of `CCCCn1c(C(=O)/C=C/c2ccc(Cl)cc2)nc2ccccc21`, the MIC came to 16 µg/mL (≈ 47.2 µM) against Saccharomyces cerevisiae; 512 µg/mL (≈ 1510 µM) with Bacillus subtilis; 256 µg/mL (≈ 756 µM) against Pichia norvegensis; 512 µg/mL (≈ 1510 µM) in the experiment with Aspergillus flavus; 32 µg/mL (≈ 94.4 µM) in the experiment on Shigella dysenteriae; 256 µg/mL (≈ 756 µM) against Candida albicans. The minimum inhibitory concentration (MIC) in the experiment with Escherichia coli [1] came to 512 µg/mL (≈ 1510 µM); with Escherichia coli [2], 256 µg/mL (≈ 756 µM); against Salmonella typhi it was 512 µg/mL (≈ 1510 µM); in the experiment with Staphylococcus aureus [3], 8 µg/mL (≈ 23.6 µM); in the experiment on Staphylococcus aureus [4], 64 µg/mL (≈ 189 µM); with Pseudomonas aeruginosa it was 512 µg/mL (≈ 1510 µM). For the same compound, the figures for the MIC in the experiment with Bacillus, in the experiment on Micrococcus luteus and in the experiment on Cyberlindnera jadinii were 128 µg/mL (≈ 378 µM), 512 µg/mL (≈ 1510 µM) and 512 µg/mL (≈ 1510 µM), respectively.

On to `CCCCCCCCn1c(-c2cc(-c3ccc(F)cc3)nc(N)n2)nc2ccccc21`, for which the MIC against Saccharomyces cerevisiae was found to be 16 µg/mL (≈ 38.3 µM); against Bacillus subtilis, 256 µg/mL (≈ 613 µM); with Pichia norvegensis it was 64 µg/mL (≈ 153 µM); with Aspergillus flavus, 128 µg/mL (≈ 307 µM); against Shigella dysenteriae, 512 µg/mL (≈ 1230 µM); against Candida albicans, 256 µg/mL (≈ 613 µM). The MIC against Escherichia coli [1] stood at 512 µg/mL (≈ 1230 µM); in the experiment with Escherichia coli [2], 256 µg/mL (≈ 613 µM); against Salmonella typhi it was 512 µg/mL (≈ 1230 µM); in the experiment on Staphylococcus aureus [3], 256 µg/mL (≈ 613 µM); against Staphylococcus aureus [4], 256 µg/mL (≈ 613 µM); against Pseudomonas aeruginosa, 512 µg/mL (≈ 1230 µM). In addition, the MIC against Bacillus worked out at 512 µg/mL (≈ 1230 µM); in the experiment with Micrococcus luteus, 32 µg/mL (≈ 76.6 µM); against Cyberlindnera jadinii, 8 µg/mL (≈ 19.2 µM).

The record behind these values is ChEMBL document CHEMBL4251572, “Novel aminopyrimidinyl benzimidazoles as potentially antimicrobial agents: Design, synthesis and biological evaluation” (Eur J Med Chem, 2018).
